The results in this text go back to US7790709B2 (dated 2010).

Turning to `CN(Cc1cc2ccccc2n1C)C(=O)/C=C/c1ccc(NC(=O)CCC(=O)N2CCOCC2)nc1`, the melting point was 206 to 209 °C (dec.).

The compound `CN(Cc1cc2ccccc2n1C)C(=O)/C=C/c1ccc(N2C(=O)CCC2=O)nc1` displayed a melting point of 185 to 187 °C.

Turning to `CN(Cc1cc2ccccc2n1C)C(=O)/C=C/c1ccc(NC(=O)CCC(N)=O)nc1`, the melting point lay in the range of 225 to 227 °C.

In general, melting point refers to the temperature of the solid-liquid transition.
